Data on 17 molecules can be found in patent US11591341B2 (ALIGOS THERAPEUTICS, INC., priority 2019, dated 2023).

The structures appear in SMILES notation. A value given as a limit tells only on which side of the number the result lay.

Broadly, the EC50 is the concentration giving half of the maximal effect. Read a high EC50 as a need for much substance.

The experiment concerns HBV. Kind of experiment: HBV-DNA Antiviral Assay Using HepG2.117 Cells (intracellular HBV DNA by qPCR). The class given is cell-based, hepatitis B virus (genotype D). To be noted: Hepatitis B virus, HepG2.117. In outline: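 HepG2.117 cells (genotype D HBV, Tet-off) were induced by doxycycline withdrawal and treated for 3 days with 9 concentrations in 4-fold dilution, 2% DMSO final. Intracellular HBV DNA was measured by qPCR against a standard curve, with ATPlite viability read in parallel. EC50, EC90 and CC50 came from fits against the DMSO control.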
(In general: Real-time PCR tracks product formation cycle by cycle.)
`COc1ccc(-n2c(C(=O)NCc3ccc(F)cc3C)c3n(c2=O)CCN(C(=O)c2ccc(Br)c(Cl)c2)C3)cc1` [Example 116, 7-(4-bromo-3-chloro-benzoyl)-N-[(4-fluoro-2-methyl-phenyl)methyl]-2-(4-methoxyphenyl)-3-oxo-6,8-dihydro-5H-imidazo[1,5-a]pyrazine-1-carboxamide] had an EC50 of 100 to 500 nM.

`COc1ccc(-n2c(C(=O)NCc3ccc(C(N)=O)cc3)c3n(c2=O)CCN(C(=O)c2ccc(Cl)c(Cl)c2)C3)cc1` [Example 104, N-[(4-carbamoylphenyl)methyl]-7-(3,4-dichlorobenzoyl)-2-(4-methoxyphenyl)-3-oxo-6,8-dihydro-5H-imidazo[1,5-a]pyrazine-1-carboxamide] returned an EC50 of over 5000 nM.

As to `COc1ccc(CNC(=O)c2c3n(c(=O)n2CCc2ccccc2)CCN(C(=O)c2ccc(Br)c(Cl)c2)C3)cc1` [Example 15, 7-(4-bromo-3-chlorobenzoyl)-N-[(4-methoxyphenyl)methyl]-3-oxo-2-(2-phenylethyl)-5H,6H,8H-imidazo[1,5-a]pyrazine-1-carboxamide], the EC50 is over 5000 nM.

As for `O=C(NCc1ccccc1-c1cocn1)c1c2n(c(=O)n1-c1ccc(OCC(F)(F)F)cc1)CCN(C(=O)c1ccc(Br)c(Cl)c1)C2` [Example 386, 7-(4-bromo-3-chloro-benzoyl)-N-[(2-oxazol-4-ylphenyl)methyl]-3-oxo-2-[4-(2,2,2-trifluoroethoxy)phenyl]-6,8-dihydro-5H-imidazo[1,5-a]pyrazine-1-carboxamide], the EC50 was 100 to 500 nM.

Molecule `CC(C)Oc1ccc(-n2c(C(=O)N[C@@H](C)c3ccccc3)c3n(c2=O)CCN(C(=O)c2ccc(Cl)c(Cl)c2)C3)cc1` (stereo in doubt) [Example 129, 7-(3,4-dichlorobenzoyl)-2-(4-isopropoxyphenyl)-3-oxo-N-[rac-(1S)-1-phenylethyl]-6,8-dihydro-5H-imidazo[1,5-a]pyrazine-1-carboxamide] came in with an EC50 of 500 to 5000 nM.

The molecule `N#CCOc1ccc(CNC(=O)c2c3n(c(=O)n2-c2ccc(OCC(F)(F)F)cc2)CCN(C(=O)c2ccc(Br)c(Cl)c2)C3)c(F)c1` [Example 326, 7-(4-bromo-3-chloro-benzoyl)-N-[[4-(cyanomethoxy)-2-fluoro-phenyl]methyl]-3-oxo-2-[4-(2,2,2-trifluoroethoxy)phenyl]-6,8-dihydro-5H-imidazo[1,5-a]pyrazine-1-carboxamide] had an EC50 of 100 to 500 nM.

The molecule `C[C@H](NC(=O)c1c2n(c(=O)n1-c1ccccc1)CCN(C(=O)c1ccc(Br)c(Cl)c1)C2)c1ccccc1` (stereo in doubt) [Example 38, 7-(4-bromo-3-chloro-benzoyl)-3-oxo-2-phenyl-N-[rac-(1S)-1-phenylethyl]-6,8-dihydro-5H-imidazo[1,5-a]pyrazine-1-carboxamide] displayed an EC50 of 500 to 5000 nM.

Molecule `COc1ccc(-n2c(C(=O)N[C@@H](c3ccccc3)C(F)F)c3n(c2=O)CCN(C(=O)c2ccc(Br)c(Cl)c2)C3)cc1` (stereo in doubt) [Example 252, 7-(4-bromo-3-chloro-benzoyl)-2-(4-methoxyphenyl)-3-oxo-N-[rac-(1S)-2,2-difluoro-1-phenyl-ethyl]-6,8-dihydro-5H-imidazo[1,5-a]pyrazine-1-carboxamide] returned an EC50 of 100 to 500 nM.

`O=C(NCc1ccccc1)c1c2n(c(=O)n1-c1ccc(-n3cncn3)cc1)CCN(C(=O)c1ccc(Br)c(Cl)c1)C2` [Example 395, N-benzyl-7-(4-bromo-3-chloro-benzoyl)-3-oxo-2-[4-(1,2,4-triazol-1-yl)phenyl]-6,8-dihydro-5H-imidazo[1,5-a]pyrazine-1-carboxamide] yielded an EC50 of 500 to 5000 nM.

`C[C@@H](NC(=O)c1c2n(c(=O)n1-c1ccc(OC3CC3)cc1)CCN(C(=O)c1ccc(Br)c(Cl)c1)C2)c1ccc(OCC#N)cc1F` (stereo in doubt) [Example 342, 7-(4-bromo-3-chloro-benzoyl)-2-[4-(cyclopropxy)phenyl]-3-oxo-N-[rac-(1R)-1-[4-(cyanomethoxy)-2-fluoro-phenyl]ethyl]-6,8-dihdyro-5H-imidazo[1,5-a]pyrazine-1-carboxamide]: the EC50 was 100 to 500 nM.

With `O=C(NCc1ccccc1-c1ccncn1)c1c2n(c(=O)n1-c1ccc(OCC(F)(F)F)cc1)CCN(C(=O)c1ccc(Br)c(Cl)c1)C2` [Example 423, 7-(4-bromo-3-chloro-benzoyl)-3-oxo-N-[(2-pyrimidin-4-ylphenyl)methyl]-2-[4-(2,2,2-trifluoroethoxy)phenyl]-6,8-dihydro-5H-imidazo[1,5-a]pyrazine-1-carboxamide], the EC50 was under 100 nM.

As to `COc1ccc(CNC(=O)c2c3n(c(=O)n2-c2ccc(-n4cccn4)cc2)CCN(C(=O)c2ccc(Br)c(Cl)c2)C3)c(F)c1` [Example 459, 7-(4-bromo-3-chloro-benzoyl)-N-[(2-fluoro-4-methoxy-phenyl)methyl]-3-oxo-2-(4-pyrazol-1-ylphenyl)-6,8-dihydro-5H-imidazo[1,5-a]pyrazine-1-carboxamide], the EC50 lay in the range of 100 to 500 nM.

Molecule `C[C@H](NC(=O)c1c2n(c(=O)n1-c1ccc(OCC(F)(F)F)cc1)CCN(C(=O)c1ccc(Br)c(Cl)c1)C2)c1ccccc1F` (stereo in doubt) [Example 264, 7-(4-bromo-3-chloro-benzoyl)-3-oxo-N-[rac-(1S)-1-(2-fluorophenyl)ethyl]-2-[4-(2,2,2-trifluoroethoxy)phenyl]-6,8-dihydro-5H-imidazo[1,5-a]pyrazine-1-carboxamide] showed an EC50 of 500 to 5000 nM.

As to `CC(C)Oc1ccc(-n2c(C(=O)NCc3ccccc3)c3n(c2=O)CCN(C(c2ccc(Br)c(Cl)c2)C(F)(F)F)C3)cc1` (racemic) [Example 241, N-benzyl-2-(4-isopropoxyphenyl)-3-oxo-7-[rac-(1S)-1-(4-bromo-3-chloro-phenyl)-2,2,2-trifluoro-ethyl]-6,8-dihydro-5H-imidazo[1,5-a]pyrazine-1-carboxamide], the EC50 is over 5000 nM.

As to `COc1cccc(C)c1CNC(=O)c1c2n(c(=O)n1-c1ccc(OCC(F)(F)F)cc1)CCN(C(=O)c1ccc(Br)c(Cl)c1)C2` [Example 259, 7-(4-bromo-3-chloro-benzoyl)-N-[(2-methoxy-6-methyl-phenyl)methyl]-3-oxo-2-[4-(2,2,2-trifluoroethoxy)phenyl]-6,8-dihydro-5H-imidazo[1,5-a]pyrazine-1-carboxamide], the EC50 lay within 100 to 500 nM.

In turn, `O=C(NCc1ccccc1-c1ccccn1)c1c2n(c(=O)n1-c1ccc(OCC(F)(F)F)cc1)CCN(C(=O)c1ccc(Br)c(Cl)c1)C2` [Example 370, 7-(4-bromo-3-chloro-benzoyl)-3-oxo-N-[[2-(2-pyridyl)phenyl]methyl]-2-[4-(2,2,2-trifluoroethoxy)phenyl]-6,8-dihydro-5H-imidazo[1,5-a]pyrazine-1-carboxamide] gave an EC50 of under 100 nM.

In turn, `C[C@@H](Oc1ccc([C@@H](C)NC(=O)c2c3n(c(=O)n2-c2ccc(OC4CC4)cc2)CCN(C(=O)c2ccc(Br)c(Cl)c2)C3)c(F)c1)C(N)=O` (stereo in doubt) [Example 355, 7-(4-bromo-3-chloro-benzoyl)-2-[4-(cyclopropoxy)phenyl]-3-oxo-N-[rac-(1R)-1-[2-fluoro-4-[rac-(1R)-2-amino-1-methyl-2-oxo-ethoxy]phenyl]ethyl]-6,8-dihydro-5H-imidazo[1,5-a]pyrazine-1-carboxamide] had an EC50 of 500 to 5000 nM.
